The record followed here is patent publication US9335320B2, “Combinations of phosphoinositide 3-kinase inhibitor compounds and chemotherapeutic agents for the treatment of hematopoietic malignancies” (Genentech, Inc., priority 2009, dated 2016).

Test [1] deals with WSU-DLCL2 lymphoma tumor xenografts. Kind of test: In vivo tumor xenograft efficacy, WSU-DLCL2. Set-up: species or system mice. The following applies: for effect on tumor growth (mean tumor volume change): FIG. 18, 25 days, GDC-0941 60 mg/kg po, Formula Ib 1 mg/kg po, Rapamycin 6 mg/kg ip. From the text: (§1) Xenografts were initiated with cancer cells.
(§2) Animals were monitored for regression responses.

The subject of test [2] is HT. The experiment in a line: CellTiter-Glo cell proliferation assay, HT. The note with it: Homo sapiens; HT (DLBCL), single agent, Table 2. The format is cell-based.
In test [3] the test system is OciLy19. The experiment in a line: CellTiter-Glo cell proliferation assay, OciLy19. The following applies: Homo sapiens, OCI-LY19; OciLy19 (DLBCL), single agent, Table 2. The format is cell-based.
The subject of test [4] is MM1.S. Kind of test: CellTiter-Glo cell proliferation assay, MM1.S. The following applies: Homo sapiens, read-out: EC50 (μM) GDC-0941 (single agent).
Procedure: (§3) The in vitro potency of the combinations of Formula I compounds with chemotherapeutic agents was measured by the cell proliferation assay of Example 15; the CellTiter-Glo® Luminescent Cell Viability Assay, commercially available from Promega Corp., Madison, Wis. […] The homogeneous assay procedure involves adding the single reagent (CellTiter-Glo® Reagent) directly to cells cultured in serum-supplemented medium. Cell washing, removal of medium and multiple pipetting steps are not required. The system detects as few as 15 cells/well in a 384-well format in 10 minutes after adding reagent and mixing.
(§4) The individual measured EC50 values of the Formula I compounds and of the chemotherapeutic agent against the particular cell are compared to the combination EC50 value. The combination index (CI) score is calculated by the Chou and Talalay method (Chou, T. and Talalay, P. (1984) Adv. Enzyme Regul. 22:27-55). A CI less than 0.8 indicates synergy. […] The strength of synergy is assessed according to Chou and Talalay.
(§5) The assay assesses the ability of compounds to enter cells and inhibit cell proliferation. The assay principle is based on the determination of the number of viable cells present by quantitating the ATP present in a homogenous assay where addition of the Cell-Titer Glo reagent results in cell lysis and generation of a luminescent signal through the luciferase reaction. […]
The test system of test [5] is primary diffuse large B-cell lymphoma (DLBCL) cells from patient NHL640-A055. The following applies: patient NHL640-A055, FIG. 5.
Test [6] relates to RI1. Kind of test: CellTiter-Glo cell proliferation assay, RI1. The format is cell-based. The note with it: Ri-1; RI1 (B-NHL), single agent, Table 2.
The subject of test [7] is Granta519. Kind of test: CellTiter-Glo cell proliferation assay, Granta519. The format is cell-based. The following applies: Homo sapiens, Granta-519; Granta519 (MCL), single agent, Table 2.
The subject of test [8] is Rec1. The experiment in a line: CellTiter-Glo cell proliferation assay, Rec1. Format: cell-based. The following applies: Homo sapiens; Rec1 (B-NHL), single agent, Table 2.
Test [9] relates to Toledo. The experiment in a line: CellTiter-Glo cell proliferation assay, Toledo. The format is cell-based. The note with it: Homo sapiens; Toledo (DLBCL), single agent, Table 2.
In test [10] the test system is Farage. Kind of test: CellTiter-Glo cell proliferation assay, Farage. Format: cell-based. The following applies: Farage (DLBCL), single agent, Table 2.
Test [11] has as its system DoHH2. Kind of test: CellTiter-Glo cell proliferation assay, DoHH2. The following applies: for EC50: Homo sapiens.
Procedure: as §3
The individual measured EC50 values of the Formula I compounds and of the chemotherapeutic agent against the particular cell are compared to the combination EC50 value. The combination index (CI) score is calculated by the Chou and Talalay method (Chou, T. and Talalay, P. (1984) Adv. Enzyme Regul. 22:27-55). A CI less than 0.8 indicates synergy. A CI between 0.8 and 1.2 indicates additivity. A CI greater than 1.2 indicates antagonism. The strength of synergy is assessed according to Chou and Talalay.
The assay assesses the ability of compounds to enter cells and inhibit cell proliferation. The assay principle is based on the determination of the number of viable cells present by quantitating the ATP present in a homogenous assay where addition of the Cell-Titer Glo reagent results in cell lysis and generation of a luminescent signal through the luciferase reaction. The luminescent signal is proportional to the amount of ATP present.
Procedure: Day 1—Seed Cell Plates (384-well black, clear bottom, microclear, TC plates with lid from Falcon #353962), Harvest cells, Seed cells at 1000 cells per 54 μl per well into 384 well Cell Plates for 3 days assay. Cell Culture Medium: RPMI or DMEM high glucose, 10% Fetal Bovine Serum, 2 mM L-Glutamine, P/S. Incubate O/N at 37 C, 5% CO2.
Day 2—Add Drug to Cells, Compound Dilution, DMSO Plates (serial 1:2 for 9 points), Add 20 ul compounds at 10 mM in the 2nd column of 96 well plate. […]
The test system of test [12] is primary follicular lymphoma cells from patient NHL600. The experiment in a line: Cell-Titer Glo survival and proliferation assay, primary follicular lymphoma cells. Format: cell-based, human. The note with it: patient NHL600, FIG. 4, single agent. The source says: GDC-0464 (Genentech, Inc.) is a potent thienopyrimidine PI3K inhibitor (US 2008/0076758). LY294002 (Eli Lilly & Co., CAS Reg. No. 154447-36-6) is also a potent inhibitor of PI3 kinases (WO 2003/035099).

Test [13] has as its system SUDHL6. The experiment in a line: CellTiter-Glo cell proliferation assay, SUDHL6. The format is cell-based. The note with it: Homo sapiens, SU-DHL-6; SUDHL6 (DLBCL), single agent, Table 2.
Test [14] deals with MC116. Kind of test: CellTiter-Glo cell proliferation assay, MC116. Format: cell-based. The note with it: Homo sapiens; MC116 (NHL), single agent, Table 2.
The subject of test [15] is WSU-DLCL2. The experiment in a line: CellTiter-Glo cell proliferation assay, WSU-DLCL2. The note with it: Homo sapiens.
Procedure: as §3, §4, §5
Test [16] relates to EJM. Kind of test: CellTiter-Glo cell proliferation assay, EJM. The format is cell-based. The note with it: Homo sapiens, read-out: EC50 (μM) GDC-0941 (single agent), Table 4.
The subject of test [17] is SC1. The experiment in a line: CellTiter-Glo cell proliferation assay, SC1. The format is cell-based. The following applies: Homo sapiens, SC-1; SC1 (DLBCL), single agent, Table 2.
Test [18] has as its system Bjab. The experiment in a line: CellTiter-Glo cell proliferation assay, Bjab. The note with it: Homo sapiens.
Procedure: (§6) The homogeneous assay procedure involves adding the single reagent (CellTiter-Glo® Reagent) directly to cells cultured in serum-supplemented medium. Cell washing, removal of medium and multiple pipetting steps are not required. The system detects as few as 15 cells/well in a 384-well format in 10 minutes after adding reagent and mixing.
(§7) The individual measured EC50 values of the Formula I compounds and of the chemotherapeutic agent against the particular cell are compared to the combination EC50 value. […] A CI less than 0.8 indicates synergy. A CI between 0.8 and 1.2 indicates additivity. A CI greater than 1.2 indicates antagonism. The strength of synergy is assessed according to Chou and Talalay.
(§8) The CellTiter-Glo® Luminescent Cell Viability Assay, including reagents and protocol are commercially available (Promega Corp., Madison, Wis., Technical Bulletin TB288). The assay assesses the ability of compounds to enter cells and inhibit cell proliferation. The assay principle is based on the determination of the number of viable cells present by quantitating the ATP present in a homogenous assay where addition of the Cell-Titer Glo reagent results in cell lysis and generation of a luminescent signal through the luciferase reaction. […]
(§9) Day 5—Develop Plates, Thaw Cell Titer Glo Buffer at room temperature. […] Read luminescence on Analyst HT Plate Reader (half second per well). […]
The subject of test [19] is DoHH2 lymphoma tumor xenografts. The experiment in a line: In vivo tumor xenograft efficacy, DoHH2. The note with it: FIG. 8, 34 days; GDC-0941 73 mg/kg po daily 21 days, rituximab 5 mg/kg iv qwk×3, CHOP.
Text: The efficacy of the combinations of the invention may be measured in vivo by implanting allografts or xenografts of cancer cells in rodents and treating the tumor-bearing animals with the combinations.
The animals were fed ad libitum water (reverse osmosis, 1 ppm Cl) and NIH 31 Modified and Irradiated Lab Diet® consisting of 18.0% crude protein, 5.0% crude fat, and 5.0% crude fiber. The mice were housed on irradiated ALPHA-Dri® Bed-O'Cobs® Laboratory Animal Bedding in static microisolators on a 12-hour light cycle at 21-22° C. (70-72° F.) and 40-60% humidity.
Xenografts were initiated with cancer cells. […] On the day of tumor implant, each test mouse received 1×10^7 cells (0.2 mL) implanted subcutaneously in the right flank, and tumor growth was monitored as the average size approached the target range of 100 to 150 mm3. […] Volume was calculated using the formula: Tumor Volume (mm^3)=(w^2×l)/2 […]
Tumors were measured twice each week using calipers. Mice were monitored individually, and each animal was euthanized when its tumor reached a volume of 1500 mm3 or at the end of the study on Day 40, whichever came first. […] The time to endpoint (TTE) for each mouse was calculated from the following equation: TTE (days)=[log10(endpoint volume,mm^3)−b]/m […]
Test [20] has as its system MOLP-8. Kind of test: CellTiter-Glo cell proliferation assay, MOLP-8. The following applies: Homo sapiens, MOLP-8, read-out: EC50 (μM) GDC-0941 (single agent).
Procedure: as §3, §4, §5
Test [21] concerns DB. Kind of test: CellTiter-Glo cell proliferation assay, DB. Format: cell-based. The following applies: Homo sapiens; DB (DLBCL), single agent, Table 2.
Test [22] relates to Jeko1. The experiment in a line: CellTiter-Glo cell proliferation assay, Jeko1. Format: cell-based. The following applies: Homo sapiens, JeKo-1; Jeko1 (MCL), single agent, Table 2.
Test [23] concerns OPM2. The experiment in a line: CellTiter-Glo cell proliferation assay, OPM2.
Procedure: as §6, §7, §8, §9
In test [24] the test system is KSM-12-BM. Kind of test: CellTiter-Glo cell proliferation assay, KSM-12-BM. The note with it: Homo sapiens, read-out: EC50 (μM) GDC-0941 (single agent), Table 4. Format: cell-based.
Test [25] deals with BJAB lymphoma tumor xenografts. The experiment in a line: In vivo tumor xenograft efficacy, BJAB. Set-up: species or system mice.
Text: as §1, §2

Test [26] concerns SUDHL4. Kind of test: CellTiter-Glo cell proliferation assay, SUDHL4. Format: cell-based. The following applies: Homo sapiens, SU-DHL-4; SUDHL4 (DLBCL), single agent, Table 2.
In test [27] the test system is p-AKT and p-S6RP in DoHH2, WSU-DLCL2, OPM2, and U266 cells. The experiment in a line: FACS intracellular detection of p-Akt and p-S6 ribosomal protein. Format: cell-based, human. The note with it: 5 μM for 4 hrs, FIGS. 1a and 1b.
Procedure: (§10) B cell lines (DoHH2 and WSU-DLCL2) and Myeloma cell lines (OPM2 and U266) were maintained in RPMI-1640/10% FBS in the presence of Pen/Strep and Glutamine.
Seed 10^7 cells of each cell line in 10 mL culture media in 10 cm Petri dish, 2 dishes for each cell line. • 2. […] Keep cells at 37° C., 5% CO2 incubator for 4 hours before harvesting. • 4. Transfer 1 mL of each condition (equivalent to 10^6 cells) to 5 mL FACS tube (BD) and spin at 1200 rpm for 5 min prior to fixation (harvest the other 9 mL culture-9×10^6 cells to 15 mL conical tube for Western). • 5. Aspirate the supernatant and fix the cells at room temperature with Fix/Perm Medium A (CAT #GAS001S-100) for 15 min. • 6. Wash the cells with PBS/2% FBS 1× • 7. Aspirate the supernatant and permeabilize the cells at room temperature with Fix/Perm Medium B (CAT #GAS002S-100) for 15 min. • 8. Wash the cells with PBS/2% FBS 1× • 9. Resuspend cells with 300 uL PBS/2% BSA and divide cells into 3 tubes 100 uL each (one for isotype-Rabbit IgG Alexa Fluor-647 and one for p-Akt Alexa Fluor-647 clone 193H12 and one for p-S6RP Alexa Fluor-647 clone D57.2.2E, all rabbit abs are from Cell Signaling). • 10. Add 50 ng of each Ab to corresponding tube and incubate at room temperature for 30 min. • 11. Wash the cells with PBS/2% FBS 1× • 12. Resuspend cells with 300 uL PBS/2% BSA and acquire data on FACSCalibur (BD) using CellQuest program. • 13. […]
Test [28] deals with Ramos. The experiment in a line: CellTiter-Glo cell proliferation assay, Ramos. The following applies: Homo sapiens; Ramos (Burkit's), single agent, Table 2. Format: cell-based.
Test [29] has as its system RPMI-8226. Kind of test: CellTiter-Glo cell proliferation assay, RPMI-8226. The note with it: Homo sapiens, RPMI-8226, read-out: EC50 (μM) GDC-0941 (single agent).
Procedure: as §3, §4, §5
Test [30] has as its system NCI-H929. Kind of test: CellTiter-Glo cell proliferation assay, NCI-H929. The note with it: Homo sapiens, NCI-H929, read-out: EC50 (μM) GDC-0941 (single agent).
Procedure: as §3, §4, §5
Test [31] deals with multiple myeloma OPM-2 cell xenografts. The experiment in a line: In vivo tumor xenograft efficacy, OPM-2. On the set-up: species or system mice. The note with it: FIG. 13, 24 days; GDC-0941 73 mg/kg po, bortezomib 0.5 mg/kg iv, lenalidomide 25 mg/kg ip, dexamethasone 3 mg/kg po.
Text: as §1, §2

Test [32] has as its system p-AKT and p-S6RP in DoHH2, WSU-DLCL2, OPM2, and U266 cells. The experiment in a line: Western blotting for p-Akt, p-BAD and p-S6 ribosomal protein. Format: cell-based, human. The note with it: 5 μM for 4 hrs, FIG. 2.
Procedure: Cells were treated as indicated and lysates analyzed by Western Blotting. Beta Actin blotting indicates approximately equal loading of lysates in each lane.
as §10
Protocol: • 1. Seed 10^7 cells of each cell line in 10 mL culture media in 10 cm Petri dish, 2 dishes for each cell line. • 2. […] Keep cells at 37° C., 5% CO2 incubator for 4 hours before harvesting. • 4. Harvest 9 mL culture (equivalent to 9×10^6 cells) to 15 mL conical tube and pellet and make cell lysates with 1×SDS sample buffer. Transfer the other 1 mL of each condition (equivalent to 1×10^6 cells) to 5 mL FACS tube (BD) for FACS. • 5. Wash cells once with cold PBS. • 6. Measure the OD of the protein samples and prepare the samples with NuPAGE electrophoresis system reagents to load 20 ug of each. • 7. Mix each protein sample for electrophoresis with appropriate amount of NuPAGE LDS sample buffer and Reducing Agent and apply 70° C. heat for 10 min. • 8. Load 10 uL of SeeBlue Plus2 Pre-stained standard and 20 ug of each sample into 4-12% NuPAGE Norvex Bis-Tris Gel and run with MES-SDS buffer in the presence of antioxidant (135 volts for 1 hour in the XCell SureLock Mini-Cell apparatus). • 9. Transfer gels to the blotting membrane using iBlot apparatus. • 10. […]
Test [33] deals with SUDHL5. The experiment in a line: CellTiter-Glo cell proliferation assay, SUDHL5. Format: cell-based. The following applies: Homo sapiens, SU-DHL-5; SUDHL5 (DLBCL), single agent, Table 2.
For test [34], the system named is WSUNHL. The experiment in a line: CellTiter-Glo cell proliferation assay, WSUNHL. Format: cell-based. The following applies: Homo sapiens, WSU-NHL, single agent, Table 2.
Test [35] concerns NCI-H929 multiple myeloma xenografts. Kind of test: In vivo tumor xenograft efficacy, NCI-H929. On the set-up: species or system mice. The note with it: for antitumor activity (mean tumor volume change): lenalidomide 25 mg/kg ip.
Text: as §1, §2

Where [36] appears, read: FIG. 16, 33 days, GDC-0941 75 mg/kg po, bortezomib 0.5 mg/kg iv, dexamethasone 3 mg/kg po.

Like-named read-outs stand apart in the source and are kept apart here. Bounds are passed on as bounds.

On to `Cc1c(CN2CCN(C(=O)[C@H](C)O)CC2)sc2c(N3CCOCC3)nc(-c3cnc(N)nc3)nc12` [Formula Ib, (S)-1-(4-((2-(2-aminopyrimidin-5-yl)-7-methyl-4-morpholinothieno[3,2-d]pyrimidin-6-yl)methyl)piperazin-1-yl)-2-hydroxypropan-1-one], for which the “effect on tumor growth (mean tumor volume change)” value in test [1] is reported as “little effect on tumor growth”.
On to `CS(=O)(=O)N1CCN(Cc2cc3nc(-c4cccc5[nH]ncc45)nc(N4CCOCC4)c3s2)CC1` [GDC-0941, 4-(2-(1H-indazol-4-yl)-6-((4-(methylsulfonyl)piperazin-1-yl)methyl)thieno[3,2-d]pyrimidin-4-yl)morpholine], for which the EC50 in test [2] was determined as 2840 nM; in test [3], 320 nM; in test [4] it was 0.22 µM; in test [6] it was 40 nM; in test [7], 210 nM; in test [8] it was 160 nM. For the same compound, the EC50 was ≥ 10 µM in [9]; 240 nM in test [10]; 0.26 µM in test [11] (DOHH-2); 0.16 µM in [11] (DOHH-2, read-out: EC50 (μM) GDC-0941 (single agent)); 10 nM in test [13]; 160 nM in test [14]. Also, the EC50 in [15] (WSUDLCL2) was 0.13 µM; in [15] (WSUDLCL2, read-out: EC50 (μM) GDC-0941 (single agent)) it was 0.17 µM; in test [16], 1.5 µM; in [17] it was ≥ 10 µM; in test [18], 0.33 µM; in [18] (read-out: EC50 (μM) GDC-0941 (single agent)), 0.33 µM. Besides, the EC50 in [20] is 0.06 µM; in test [21], ≥ 10 µM; in [22], 320 nM; in test [23] (Homo sapiens, OPM-2, read-out: EC50 (μM) GDC-0941 (single agent)), 1.23 µM; in test [24], > 5 µM; in [26] it was 1350 nM. For the same compound, the EC50 is ≥ 10 µM in test [28]; 2.53 µM in [29]; 0.43 µM in [30]; 80 nM in [33]; 160 nM in test [34]. The “cell viability, relative potency” value in [5] is on record as “significantly more potent than doxorubicin”. Further, in [12], the “potency against primary cancer cells (viable cells)” value was “surprising and unexpected degree of potency”. In addition, the “antitumor activity (mean tumor volume change)” value in test [19] was “significantly different than vehicle”; in [1] (FIG. 7, 20 days, GDC-0941 73 mg/kg po daily 21 days, rituximab 5 mg/kg days 0, 7, 14, CHOP from day 0) it was “only modest activity”; in test [25] (FIG. 10, 25 days, GDC-0941 73 mg/kg po daily 21 days, CHOP from day 0), “only modest activity”; in test [25] (FIG. 11, 25 days, GDC-0941 75 mg/kg po qd×21, rituximab 5 mg/kg days 0, 7, 14), “only modest activity”; in test [31], “indistinguishable and moderate tumor activity”. Moreover, in [1], the “effect on tumor growth (mean tumor volume change)” value was “little effect on tumor growth”. In addition, the “p-AKT signal (flow cytometry)” value in test [27] was “abolished p-AKT signal”. Also, the “p-S6RP signal (flow cytometry)” value in [27] is listed as “reduced or abolished p-S6RP signal”. Besides, the “p-AKT signal (western blotting)” value in [32] is listed as “significantly reduced (where present)”. Besides, the “p-S6RP signal (western blotting)” value in [32] was “significantly reduced (where present)”.
As for `CC(C)C[C@H](NC(=O)[C@H](Cc1ccccc1)NC(=O)c1cnccn1)B(O)O` [bortezomib, [(1R)-3-methyl-1-({(2S)-3-phenyl-2-[(pyrazin-2-ylcarbonyl)amino]propanoyl}amino)butyl]boronic acid], the “antitumor activity (mean tumor volume change)” value in test [35] (FIG. 12, 22 days, single agents, GDC-0941 73 mg/kg po, bortezomib 1 mg/kg iv, dexamethasone 10 mg/kg po) is on record as “exceeded by the efficacy of bortezomib”; in test [35] (setting [36]), “modest activity”; in test [31], “sub-clinical response which was not different than that of vehicle”. In test [35] (FIG. 12, cohorts of 10 mice), this compound showed a partial responses of 3.
As to `C[C@@H]1C[C@H]2[C@@H]3CCC4=CC(=O)C=C[C@]4(C)[C@@]3(F)[C@@H](O)C[C@]2(C)[C@@]1(O)C(=O)CO` [dexamethasone, (8S,9R,10S,11S,13S,14S,16R,17R)-9-fluoro-11,17-dihydroxy-17-(2-hydroxyacetyl)-10,13,16-trimethyl-6,7,8,11,12,14,15,16-octahydrocyclopenta[a]phenanthren-3-one, reference compound], the “antitumor activity (mean tumor volume change)” value in test [35] (setting [36]) was “modest activity”; in [31], “indistinguishable and moderate tumor activity”. Besides, the “single agent activity on viable cells (dose-response)” value in [11] (B-NHL cell line DoHH2, FIG. 3) was “relatively impotent activity”. In [23] (multiple myeloma OPM2 cells, FIG. 6, single agent), the “response in cell proliferation assay” value was “relatively weak response”.
As to `Nc1cccc2c1CN(C1CCC(=O)NC1=O)C2=O` (stereo not shown) [lenalidomide, 3-(4-amino-1-oxoisoindolin-2-yl)piperidine-2,6-dione], the “antitumor activity (mean tumor volume change)” value is “modest activity” in test [35] (setting [36]); “indistinguishable and moderate tumor activity” in test [31].
